{"source": "patent US5760036A", "about": "“Aminediol protease inhibitors” (E. R. Squibb & Sons, Inc., priority 1995, dated 1998)", "key": {"HIV protease": {"target": "T1, HIV protease (Human immunodeficiency virus type 1 group M subtype B, UniProt P04585)", "T1 construct": "and purified protease", "assay": "HIV Protease Assay", "assay_type": "biochemical", "in_short": "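Purified protease cleaved 450 μM octapeptide substrate in 50 mM sodium acetate pH 5.5 with 100 μg/ml BSA for 30 minutes at 37° C; product analyzed by reverse-phase HPLC at UV220 after H3PO4 quench. Inhibitors tested at final 10 μM with 4% DMSO.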"}, "[1]": {"system": "RF strain of HIV (CEM-SS cells)", "assay": "Cell Culture Anti-HIV Activity (cell viability, formazan)", "assay_type": "cell-based", "details": "Human immunodeficiency virus 1, CEM-SS, 144 h, CEM-SS cells, RF strain of HIV, multiplicity of infection 0.04, 6 days at 37° C., 450 nm; read-out: HIV (CEM Cells) IC50", "in_short": "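CEM-SS cells (5000/well) infected with HIV RF at MOI 0.04, exposed to half-log serial compound dilutions, incubated 6 days at 37° C. Viability read by tetrazolium reduction to formazan, absorbance 450 nm. IC50 is the concentration raising formazan in infected cells to 50% of uninfected, drug-free cells.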"}, "[2]": {"details": "pH 5.5, 10 μM inhibitor, 4% DMSO, 450 μM substrate, pH 5.5, 30 minutes at 37° C., RP-HPLC, read-out: HIV Protease % Inhibition at 10 μM"}, "[3]": {"details": "pH 5.5, read-out: HIV Protease % Inhibition at 10 μM"}}, "note": "Where two headings read alike, the source gives them in different places."}
{"smiles": "CC(C)(C)OC(=O)N[C@@H](Cc1ccccc1)[C@H](O)CNC[C@@H](O)[C@H](CC1CCCCC1)NC(=O)OC(C)(C)C", "note": "[Compound 15, [1S-[1R*,2S*(2S*,3R*)]]-[3-[[4-Cyclohexyl-3-[[(1,1-dimethylethoxy)carbonyl]-amino]-2-hydroxybutyl]amino-2-hydroxy-1-(phenylmethyl)propyl]carbamic acid, 1,1-dimethylethyl ester]", "values": [{"measurement": "inhibition at 10 µM", "setting": "HIV protease; [2]", "result": 98, "unit": "%"}, {"measurement": "IC50", "setting": "[1]", "result": 380, "unit": "nM"}]}
{"smiles": "CNC(=O)N[C@H](C(=O)N[C@@H](Cc1ccccc1)[C@H](O)CNC[C@@H](O)[C@H](Cc1ccccc1)NC(=O)OC(C)(C)C)C(C)(C)C", "note": "(relative stereo) [Compound 263, [1R*,2S*(2S*,3R*)]-N-[3-[[3-[[(1,1-Dimethylethoxy)carbonyl]amino]-2-hydroxy-4-phenylbutyl]amino]-2-hydroxy-1-(phenylmethyl)propyl]-N^2-[(methylamino)carbonyl]-3-methyl-L-valinamide]", "values": [{"measurement": "inhibition at 10 µM", "setting": "HIV protease; [2]", "result": 98, "unit": "%"}, {"measurement": "IC50", "setting": "[1]", "result": 340, "unit": "nM"}]}
{"smiles": "CC(C)(C)OC(=O)N[C@@H](Cc1ccccc1)[C@H](O)CNC[C@@H](O)[C@H](Cc1ccccc1)NC(=O)O[C@H]1CCOC1", "note": "[Compound 331, [1S-(1R*,2S*,3R*)]-[Iminobis[2-hydroxy-1-(phenylmethyl)-3,1-propanediyl]]bis[carbamic acid], 3-tetrahydrofuranyl 1,1-dimethylethyl ester]", "values": [{"measurement": "inhibition at 10 µM", "setting": "HIV protease; [2]", "result": 99, "unit": "%"}, {"measurement": "IC50", "setting": "[1]", "result": 60, "unit": "nM"}]}
{"smiles": "CC(C)(CO)OC(=O)N[C@@H](Cc1ccccc1)[C@H](O)CNC[C@@H](O)[C@H](Cc1ccccc1)NC(=O)[C@](C)(O)C(C)(C)C", "note": "[Compound 333, [1S-[1R*,2S*[2S*3R*(S*)]]]-[3-[[3-[(2-Hydroxy-2,3,3-trimethyl-1-oxobutyl)amino]-2-hydroxy-4-phenylbutyl]amino-2-hydroxy-1-(phenylmethyl)propyl]carbamic acid, 2-hydroxy-1,1-dimethylethyl ester]", "values": [{"measurement": "inhibition at 10 µM", "setting": "HIV protease; [2]", "result": 100, "unit": "%"}, {"measurement": "IC50", "setting": "[1]", "result": 150, "unit": "nM"}]}
{"smiles": "CC(C)[C@H](NC(=O)[C@H](C)O)C(=O)N[C@@H](Cc1ccccc1)[C@H](O)CNC[C@@H](O)[C@H](Cc1ccccc1)NC(=O)OC(C)(C)C", "note": "[Compound 225, [1S-[[1R*,2S*(2S*,3R*)],N^2-(R*)]-N-[3-[[3-[[(1,1-Dimethylethoxy)carbonyl]amino]-2-hydroxy-4-phenylbutyl]amino]-2-hydroxy-1-(phenylmethyl)propyl]-N^2-(2-hydroxy-1-oxo-propyl)-L-valinamide]", "values": [{"measurement": "inhibition at 10 µM", "setting": "HIV protease; [2]", "result": 99, "unit": "%"}, {"measurement": "IC50", "setting": "[1]", "result": 500, "unit": "nM"}]}
{"smiles": "CC(C)(C)OC(=O)N[C@@H](Cc1ccccc1)[C@H](O)CNC[C@@H](O)[C@H](Cc1ccccc1)NC(=O)OC(C)(C)CCCOCc1ccccc1", "note": "[Compound 210, [1S-(1R*,2S*)]-[Iminobis[2-hydroxy-1-(phenylmethyl)-3,1-propanediyl]]biscarbamic acid, 1,1-dimethylethyl-4-(phenylmethoxy)-1,1-dimethylbutyl ester]", "values": [{"measurement": "inhibition at 10 µM", "setting": "HIV protease; [2]", "result": 81, "unit": "%"}, {"measurement": "IC50", "setting": "[1]", "result": "> 5000", "unit": "nM"}]}
{"smiles": "CC(C)(C)OC(=O)N[C@@H](Cc1ccccc1)[C@H](O)CNC[C@@H](O)[C@H](Cc1ccccc1)NC(=O)[C@@H](NC(=O)[C@H](Cc1ccccc1)NC=O)C(C)(C)C", "note": "(relative stereo) [Compound 285, [1R*,2S*(2S*,3R*)]-N-[3-[[(1,1-Dimethylethoxy)carbonyl]amino]-2-hydroxy-4-phenylbutyl]amino]-2-hydroxy-1-(phenylmethyl)propyl]-N^2-(N-formyl-L-phenylalanyl)-3-methyl-L-valinamide]", "values": [{"measurement": "inhibition at 10 µM", "setting": "HIV protease; [2]", "result": 100, "unit": "%"}, {"measurement": "IC50", "setting": "[1]", "result": 650, "unit": "nM"}]}
{"smiles": "O=C(N[C@@H](Cc1ccccc1)[C@H](O)CNC[C@@H](O)[C@H](Cc1ccccc1)NC(=O)c1ccccc1)c1ccccc1", "note": "[Compound 36, [S-(1R*,2S*)]-N,N'-[Iminobis[2-hydroxy-1-(phenylmethyl)-3,1-propanediyl]]bisbenzamide]", "values": [{"measurement": "inhibition at 10 µM", "setting": "HIV protease; [2]", "result": 36, "unit": "%"}, {"measurement": "IC50", "setting": "[1]", "result": "> 8000", "unit": "nM"}]}
{"smiles": "CC(C)(C)OC(=O)N[C@@H](Cc1ccccc1)[C@H](O)CNC[C@@H](O)[C@H](Cc1ccccc1)NC(=O)[C@@](C)(O)C(C)(C)C", "note": "[Compound 261, [1S-[1R*,2S*[2R*,3R*(R*)]]]-[3-[[3-[(2-Hydroxy-2,3,3-trimethyl-1-oxobutyl)amino]-2-hydroxy-4-phenylbutyl]amino]-2-hydroxy-1--(phenylmethyl)propyl]carbamic acid, 1,1-dimethylethyl ester]", "values": [{"measurement": "inhibition at 10 µM", "setting": "HIV protease; [3]", "result": 94, "unit": "%"}, {"measurement": "IC50", "setting": "[1]", "result": 1100, "unit": "nM"}]}
{"smiles": "CC(C)(C)OC(=O)N[C@@H](Cc1ccccc1)[C@H](O)CNC[C@@H](O)[C@H](Cc1ccccc1)NC(=O)C(OCCCc1nc2ccccc2[nH]1)C(C)(C)C", "note": "(stereo partly drawn) [Compound 238, [1S-[1R*,2S*(2S*,3R*)]]-[3-[[3-[[2-[3-(2-Benzimidazolyl)propoxy]-3,3-dimethyl-1-oxobutyl]amino]-2-hydroxy-4-phenylbutyl]amino]-2-hydroxy-1-(phenylmethyl)propyl]carbamic acid, 1,1-dimethylethyl ester]", "values": [{"measurement": "inhibition at 10 µM", "setting": "HIV protease; [2]", "result": 64, "unit": "%"}, {"measurement": "IC50", "setting": "[1]", "result": 2300, "unit": "nM"}]}
{"smiles": "CC(C)(C)OC(=O)N[C@@H](Cc1ccccc1)[C@H](O)CNC[C@@H](O)[C@H](Cc1ccccc1)NC(=O)[C@H](Cc1ccccc1)NC(=O)OCc1ccccc1", "note": "(relative stereo) [Compound 55, [1R*,2S*(2S*,3R*)]-N-[[3-[[(1,1-Dimethylethoxy)carbonyl]amino]-2-hydroxy-4-phenylbutyl]amino]-2-hydroxy-1-(phenylmethyl)propyl]-N^2-[(phenylmethoxy)carbonyl]-L-phenylalaninamide]", "values": [{"measurement": "inhibition at 10 µM", "setting": "HIV protease; [2]", "result": 91, "unit": "%"}, {"measurement": "IC50", "setting": "[1]", "result": 700, "unit": "nM"}]}
{"smiles": "COCC(C)(C)OC(=O)N[C@@H](Cc1ccccc1)[C@H](O)CNC[C@@H](O)[C@H](Cc1ccccc1)NC(=O)OC(C)(C)C", "note": "[Compound 168, [R-(R*,S*)]-[Iminobis[2-hydroxy-1-(phenylmethyl)-3,1-propanediyl)biscarbamic acid, 1,1-dimethylethyl 2-methoxy-1,1-dimethylethyl ester]", "values": [{"measurement": "inhibition at 10 µM", "setting": "HIV protease; [2]", "result": 61, "unit": "%"}, {"measurement": "IC50", "setting": "[1]", "result": 1400, "unit": "nM"}]}
{"smiles": "CC(C)[C@H](NC(=O)c1ccc2ccccc2c1)C(=O)N[C@@H](Cc1ccccc1)[C@H](O)CNC[C@@H](O)[C@H](Cc1ccccc1)NC(=O)OC(C)(C)C", "note": "[Compound 79, [S-[1R*,2S*(2S*,3R*)]]-N-[3-[[3-[[(1,1-Dimethylethoxy)carbonyl]amino]-2-hydroxy-4-phenylbutyl]amino]-2-hydroxy-1-(phenylmethyl)propyl]-N^2 (2-naphthalenylcarbonyl)-L-valinamide]", "values": [{"measurement": "inhibition at 10 µM", "setting": "HIV protease; [2]", "result": 99, "unit": "%"}, {"measurement": "IC50", "setting": "[1]", "result": 400, "unit": "nM"}]}
{"smiles": "CC(C)(C)OC(=O)N[C@@H](Cc1ccccc1)[C@H](O)CNC[C@@H](O)[C@H](Cc1ccccc1)NC(=O)OC(C)(C)CNC=O", "note": "[Compound 236, [1S-(1R*,2S*)]-[Iminobis[2-hydroxy-1-(phenylmethyl)-3,1-propanediyl]]biscarbamic acid, 2-(formylamino)-1,1-dimethylethyl 1,1-dimethylethyl ester]", "values": [{"measurement": "inhibition at 10 µM", "setting": "HIV protease; [2]", "result": 89, "unit": "%"}, {"measurement": "IC50", "setting": "[1]", "result": 700, "unit": "nM"}]}
{"smiles": "CC(C)(C)OC(=O)N[C@@H](Cc1ccccc1)[C@H](O)CNC[C@@H](O)[C@H](Cc1ccccc1)NC(=O)C(NC(=O)OCc1ccccc1)C(C)(C)O", "note": "(single isomer, unassigned; isomer a) [Compound 301, [1S-[1R*,2S*(2S*,3R*)]]-[1-[[[3-[[(1,1-Dimethylethoxy)carbonyl]amino]-2-hydroxy-4-phenylbutyl]amino]-2-hydroxy-1-(phenylmethyl)propyl]amino]carbonyl]-2-hydroxy-2-methylpropyl]carbamic acid, phenylmethyl ester, isomer A]", "values": [{"measurement": "inhibition at 10 µM", "setting": "HIV protease; [2]", "result": 95, "unit": "%"}, {"measurement": "IC50", "setting": "[1]", "result": 2400, "unit": "nM"}]}
{"smiles": "CC(C)(C)OC(=O)N[C@@H](Cc1ccccc1)[C@H](O)CNC[C@@H](O)[C@H](Cc1ccc(OCC(O)c2cccnc2)cc1)NC(=O)OC(C)(C)C", "note": "(single isomer, unassigned; isomer a) [Compound 355, [1S-[1R*,2S* (2S*,3R*)]]-[3-[[3-[[(1,1-Dimethylethoxy)carbonyl]amino]-2-hydroxy-4-[4-[2-hydroxy-2-(3-pyridinyl)ethoxy]phenyl]-butyl]amino]-2-hydroxy-1-(phenylmethyl)-propyl]-carbamic acid, 1,1-dimethylethyl ester, Isomer A]", "values": [{"measurement": "inhibition at 10 µM", "setting": "HIV protease; [3]", "result": 99, "unit": "%"}, {"measurement": "IC50", "setting": "[1]", "result": 70, "unit": "nM"}]}
{"smiles": "CC(C)(C)NC(=O)N[C@@H](Cc1ccccc1)[C@H](O)CNC[C@@H](O)[C@H](Cc1ccccc1)NC(=O)NC(C)(C)C", "note": "[Compound 47, [R-(R*,S*)]-N,N\"-[Iminobis[2-hydroxy-1-(phenylmethyl)-3,1-propanediyl]]-bis[N'-(1,1-dimethylethyl)urea]]", "values": [{"measurement": "inhibition at 10 µM", "setting": "HIV protease; [2]", "result": 81, "unit": "%"}, {"measurement": "IC50", "setting": "[1]", "result": 1100, "unit": "nM"}]}
{"smiles": "COCCOc1ccc(C[C@H](NC(=O)OC(C)(C)CO)[C@H](O)CNC[C@@H](O)[C@H](Cc2ccccc2)NC(=O)OC(C)(C)C)cc1", "note": "[Compound 283, [1S-[1R*,2S*(2S*,3R*)]]-[3-[[3-[[(1,1-Dimethylethoxy)carbonyl]amino]-2-hydroxy-4-phenylbutyl]amino]-2-hydroxy-1-8 [4-(2-methoxyethoxy)phenyl]methyl]propyl]carbamic acid, 2-hydroxy-1,1-dimethylethyl ester]", "values": [{"measurement": "inhibition at 10 µM", "setting": "HIV protease; [2]", "result": 100, "unit": "%"}, {"measurement": "IC50", "setting": "[1]", "result": 110, "unit": "nM"}]}
{"smiles": "CC(C)(C)OC(=O)N[C@@H](Cc1ccccc1)[C@H](O)CNC[C@@H](O)[C@H](Cc1ccccc1)NC(=O)OC1(CO)CCC1", "note": "[Compound 303, [1S-(1R*,2S*)]-[Iminobis[2-hydroxy-1-(phenylmethyl)-3,1-propanediyl]]bis[[carbamic acid], 1-(hydroxymethyl)cyclobutyl 1,1-dimethylethyl ester]", "values": [{"measurement": "inhibition at 10 µM", "setting": "HIV protease; [2]", "result": 98, "unit": "%"}, {"measurement": "IC50", "setting": "[1]", "result": 70, "unit": "nM"}]}
